Results as given in patent publication US20140228303A1, “NOVEL SGLT INHIBITORS” (Panacea Biotec Ltd, priority 2011, published 2014).

What was measured:
mouse SGLT-2 = molecular target: T1, mouse SGLT-2 (Mus musculus, UniProt Q923I7); assay: Methyl-α-D-[U-14C]Glucopyranoside uptake assay for SGLT-2 in CHO-K1 cells expressing mSGLT-2; type: cell-based; settings: N.E. = Not Effective
T1 construct: Full-length mouse SGLT-2 cDNA was amplified from C57BL/6J mouse kidneys and introduced in the pcDNA3.1(+) expression vector; expressed in transfected cells
T1 sequence (Q923I7 1-670): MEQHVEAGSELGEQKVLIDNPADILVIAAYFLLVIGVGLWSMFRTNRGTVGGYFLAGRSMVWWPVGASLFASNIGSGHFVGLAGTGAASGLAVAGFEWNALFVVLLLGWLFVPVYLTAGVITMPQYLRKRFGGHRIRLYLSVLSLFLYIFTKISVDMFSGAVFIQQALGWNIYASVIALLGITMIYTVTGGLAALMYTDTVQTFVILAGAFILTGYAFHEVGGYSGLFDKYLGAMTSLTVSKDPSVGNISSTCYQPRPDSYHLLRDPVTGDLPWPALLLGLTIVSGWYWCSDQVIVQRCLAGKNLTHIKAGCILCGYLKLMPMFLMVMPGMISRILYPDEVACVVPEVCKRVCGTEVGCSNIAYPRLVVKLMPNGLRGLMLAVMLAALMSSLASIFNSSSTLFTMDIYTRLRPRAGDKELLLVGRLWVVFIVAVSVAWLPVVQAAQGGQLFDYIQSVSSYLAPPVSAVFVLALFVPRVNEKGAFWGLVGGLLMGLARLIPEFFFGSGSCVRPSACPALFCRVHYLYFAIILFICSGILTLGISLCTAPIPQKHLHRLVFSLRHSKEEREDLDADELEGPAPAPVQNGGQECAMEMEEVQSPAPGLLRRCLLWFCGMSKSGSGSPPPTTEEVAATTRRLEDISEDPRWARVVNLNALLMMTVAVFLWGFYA
Experimental: Preparation of Mouse SGLT-2 Expressing Cells
Full-length mouse SGLT-2 cDNA was amplified from C57BL/6J mouse kidneys and introduced in the pcDNA3.1(+) expression vector (Invitrogen, Inc.) and propagated in Escherichia coli strain DH5α using Luria-Bertani (LB) medium containing ampicillin. […] Stably transfected cells were selected using G418 antibiotic selection pressure.
Methyl-α-D-[U-^14C]Glucopyranoside Uptake Assay for SGLT-2
(§1) Cells expressing mSGLT-2 were seeded on 96-well tissue culture plates (Greiner, Inc.) in RPMI containing 10% FBS and 400 μg/mL G418 (0.8×10^5 cells per well in 200 μL medium) and incubated at 37° C. under 5% carbon dioxide for 24 h prior to the assay. Cells were washed twice with 200 μL of either sodium buffer (140 mM NaCl, 4.7 mM KCl, 2.2 mM CaCl2, 1.2 mM MgCl2, 10 mM Tris/Hepes, pH 7.4) or sodium-free buffer (137 mM N-methyl-glucamine, 4.7 mM KCl, 2.2 mM CaCl2, 1.2 mM MgCl2, 10 mM Tris/Hepes, pH 7.4). Reaction mixture containing test compounds at different concentrations diluted in assay buffer, 0.1 mM unlabeled Methyl-α-D-glucopyranoside and 1 μCi/well methyl-α-D[U-^14C]glucopyranoside (American Radiochemicals) was added per well of a 96-well plate and incubated at 37° C. for 1 h. Cells were washed thrice with 200 μL of wash buffer (140 mM NaCl, 4.7 mM KCl, 2.2 mM CaCl2, 1.2 mM MgCl2, 10 mM Tris/Hepes, pH 7.4 containing 500 μM phlorizin) and lysed using 50 μL of 0.25N NaOH. Methyl-α-D[U-^14C]glucopyranoside uptake was quantitated using a Top count scintillation counter (PerkinElmer, Inc.). All the test compounds were assayed in triplicates.

human SGLT-1 = molecular target: T2, human SGLT-1 (Homo sapiens, UniProt P13866); assay: Methyl-α-D-[U-14C]Glucopyranoside uptake assay for SGLT-1 in CHO-K1 cells expressing hSGLT-1; type: cell-based; settings: N.E. = Not Effective
T2 construct: Full-length human SGLT-1 cDNA in the pCMV-XL-Neo expression vector was obtained from Origene Corporation
T2 sequence (P13866 1-664): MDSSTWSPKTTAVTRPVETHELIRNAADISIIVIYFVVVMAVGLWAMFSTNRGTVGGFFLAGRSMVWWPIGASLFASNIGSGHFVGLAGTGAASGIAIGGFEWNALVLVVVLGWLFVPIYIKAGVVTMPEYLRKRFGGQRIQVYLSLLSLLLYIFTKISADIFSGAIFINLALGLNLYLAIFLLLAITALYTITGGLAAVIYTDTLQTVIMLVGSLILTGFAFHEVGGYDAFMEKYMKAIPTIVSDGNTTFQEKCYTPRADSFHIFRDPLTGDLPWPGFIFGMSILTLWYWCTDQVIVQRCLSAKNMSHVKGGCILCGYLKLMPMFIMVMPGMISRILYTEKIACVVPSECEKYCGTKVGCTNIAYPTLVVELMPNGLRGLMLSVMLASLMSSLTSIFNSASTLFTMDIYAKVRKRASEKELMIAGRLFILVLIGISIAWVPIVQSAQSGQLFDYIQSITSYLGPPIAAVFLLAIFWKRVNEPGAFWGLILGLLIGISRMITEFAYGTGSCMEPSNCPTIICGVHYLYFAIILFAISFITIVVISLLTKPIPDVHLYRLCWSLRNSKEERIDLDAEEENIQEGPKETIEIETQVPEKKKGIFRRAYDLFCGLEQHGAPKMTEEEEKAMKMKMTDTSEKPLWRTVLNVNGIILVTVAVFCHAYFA
Experimental: Preparation of Human SGLT-1 Expressing Cells
Full-length human SGLT-1 cDNA in the pCMV-XL-Neo expression vector was obtained from Origene Corporation and propagated in Escherichia coli strain DH5α using Luria-Bertani (LB) medium containing ampicillin. […] Stably transfected cells were selected using G418 antibiotic selection pressure.
Methyl-α-D-[U-^14C]Glucopyranoside Uptake Assay for SGLT-1
as §1, with “hSGLT-1” for “mSGLT-2”, “800 μg/ml” for “400 μg/mL”, “compounds” for “compounds at different concentrations”, “1” for “0.1”, “methyl-α-D-[U-^14C]glucopyranoside” for “methyl-α-D[U-^14C]glucopyranoside”, “Methyl-α-D-[U-^14C]glucopyranoside” for “Methyl-α-D[U-^14C]glucopyranoside”

C57BL/6J mice = assay: Estimation of urinary glucose in C57BL/6J mice; type: in vivo, mouse; settings: urine collected over 24 h
Experimental: Estimation of Urinary Glucose in C57BL/6J Mice
C57BL/6J mice were fasted 4 h before drug treatment. Fasted mice were weighed and randomized into different groups based on their body weight (n=6). At time T0 test compounds and standard compounds suspended in 0.25% CMC or PEG 400 formulation, were administered to respective groups and kept in metabolic cages (6 mice/cage) after dosing. Animals were fed after drug administration and urine was collected over a period of 24 h. Urinary volume was measured and urinary glucose was estimated using Merckotest Glucose Reagent (Merck Specialities Pvt. Ltd., India).

Rats = assay: Estimation of urinary glucose in rat; type: in vivo; settings: urine collected over 24 hrs
Experimental: Estimation of Urinary Glucose in Rat
Rats were fasted overnight (14 hrs) before drug treatment. Fasted rats were weighed and randomized into different groups based on their body weight (n=4). At time To test compounds and standard compound suspended in 0.25% C.M.C. or PEG 400 formulation were administered to respective groups and kept the animals in metabolic cages (1 rat/cage) after dosing. Animals were fed after drug administration and urine was collected over a period of 24 hrs. Urine volume was measured and urinary glucose was estimated using Merckotest Glucose Reagent (Merck Specialities Pvt. Ltd., India).

Row | Substance | % inhibition of Methyl-α-D-[U-14C] Glucopyranoside uptake (CHO-K1 cells) mediated by SGLT-2 (mouse SGLT-2; 0.1 nM compound) [%] | % inhibition of Methyl-α-D-[U-14C] Glucopyranoside uptake (CHO-K1 cells) mediated by SGLT-2 (mouse SGLT-2; 1 nM compound) [%] | % inhibition of Methyl-α-D-[U-14C] Glucopyranoside uptake (CHO-K1 cells) mediated by SGLT-2 (mouse SGLT-2; 10 nM compound) [%] | % inhibition of Methyl-α-D-[U-14C] Glucopyranoside uptake (CHO-K1 cells) mediated by SGLT-2 (mouse SGLT-2; 100 nM compound) [%] | % inhibition of Methyl-α-D-[U-14C] Glucopyranoside uptake (CHO-K1 cells) mediated by SGLT-1 (human SGLT-1; 100 nM compound) | % inhibition of Methyl-α-D-[U-14C] Glucopyranoside uptake (CHO-K1 cells) mediated by SGLT-1 (human SGLT-1; 1 μM compound) | % inhibition of Methyl-α-D-[U-14C] Glucopyranoside uptake (CHO-K1 cells) mediated by SGLT-1 (human SGLT-1; 10 μM compound) [%] | UGE in mice (in mg/g of feed consumed) at 3 mpk (C57BL/6J mice) | UGE in rat (in mg/g of feed consumed) at 3 mpk (Rats)
1 | 1-(4-(2-chloro-5-((1S,2S,3S,4R,5S)-2,3,4-trihydroxy-1-(hydroxymethyl)-6,8-dioxabicyclo[3.2.1]octan-5-yl)benzyl)phenyl)propan-1-one O-methyl oxime [Compound 3] | 26.42 | 26.10 | 59.52 | 93.34 | N.E. | N.E. | 63.64 | 81.9 mg/g of feed consumed | 67.4 mg/g of feed consumed
2 | 1-(4-(2-chloro-5-((2S,3R,4R,5S,6R)-3,4,5-trihydroxy-6-(hydroxymethyl)tetrahydro-2H-pyran-2-yl)benzyl)phenyl)ethanone O-methyl oxime [Compound 2] | 16.73 | 26.19 | 73.13 | 92.85 | N.E. | 33.10% | 78.87 | 88.9 mg/g of feed consumed | 68.6 mg/g of feed consumed
